US20230045629A1, “TREATMENT OF PROGRESSIVE SUPRANUCLEAR PALSY” (NATIONAL UNIVERSITY CORPORATION TOKAI NATIONAL HIGHER …, priority 2020, published 2023)

System: AT8-positive phosphorylated tau
Test: Actin polymerization inhibitor on phosphorylated tau in primary cortical neurons from fetal mouse brain electroporated in utero with FLNA, fluorescent immunostaining
Type: cell-based
Conditions: wild-type FLNA introduced at E14, primary cortical neurons collected at E15, 2 DIV; compared with 0.1% DMSO (control)
Text: FIG. 17-2: Continued from FIG. 17. (b): Each plasmid was introduced into a fetal mouse brain in a mouse at 14 days of gestation (E14) by in utero electroporation, and primary cortical neurons were collected at 15 days of gestation (E15), followed by 2-day cell culture (2 DIV) and then fluorescent immunostaining. At the time of administration of 0.1% DMSO (control), the expression level of AT8-positive phosphorylated tau was increased because of wild-type FLNA (FLNA^WT) but not at the time of administration of an actin polymerization inhibitor cytochalasin D (CytoD). The multiple asterisks “***” indicate a Tukey's test P value of less than 0.001.
The FLNA gene was induced into the brain of a fetal mouse in a mouse at 14 days of gestation (E14).

## C=C1[C@@H](C)[C@H]2[C@H](Cc3ccccc3)NC(=O)[C@]23[C@H](OC(C)=O)/C=C/[C@@](C)(O)C(=O)[C@@H](C)C/C=C/[C@H]3[C@@H]1O [cytochalasin D (CytoD)]
  expression level of AT8-positive phosphorylated tau: did not cause an increase
